Values of other authors as cited in patent publication US11723868B2, “Biodegradable polymer microsphere compositions for parenteral administration” (Adare Pharmaceuticals USA, Inc., priority 2016, dated 2023).

How the values were obtained:
[1] = properties of drugs used, Table B
[2] = properties of drugs used, Table B; remark: listed apart in the source

Structure (SMILES) | Water Solubility [1] [µg/mL] | logP [2]
COc1cc2c(cc1Cc1cccc(Cl)c1F)c(=O)c(C(=O)O)cn2[C@H](CO)C(C)C [Drug A, Elvitegravir] | <3 | 4.67
C#C[C@]1(O)CC[C@H]2[C@@H]3CCC4=CC(=O)CC[C@@H]4[C@H]3C(=C)C[C@@]21CC [Drug C, Etonogestrel] | <7 | 3.40
C[C@@H](O)[C@@H]1NC(=O)[C@H](CCCCN)NC(=O)[C@@H](Cc2c[nH]c3ccccc23)NC(=O)[C@H](Cc2ccccc2)NC(=O)[C@@H](NC(=O)[C@H](N)Cc2ccccc2)CSSC[C@@H](C(=O)N[C@H](CO)[C@@H](C)O)NC1=O [Drug D, Octreotide] | >10000 | –
